Reference: US7968529B2, “Use of sphingolipids for reducing high plasma cholesterol and high triacylglycerol levels” (Nederlandse Organisatie Voor …, priority 2003, dated 2011)

Assays:
Format in all cases: in vivo
[1] = system: APOE*3Leiden transgenic mice; assay: Plasma cholesterol in APOE*3Leiden transgenic mice fed a Western-type diet with sphingolipid
Text: (§1) In this experiment mice were used in which the human gene for the so-called Leiden mutation of apolipoprotein E3 (APOE*3Leiden transgenic mice) had been incorporated by transgenesis. Because of this transgenic change, these so-called APOE*3Leiden mice have a humanized lipoprotein profile, and are extremely suitable for studying the effect of compounds on lipoprotein metabolism (Van Vlijmen et. al. 1996. J Clin Invest. 97:1184-1192; Van Vlijmen et. al. 1998. Arzneimittelforschung 1998; 48:396-402.).
(§2) The study design was as follows: female mice were fed for 5 weeks “Western-type” diet (Nishina et al. 1990. J Lipid Res. 31:859-869) containing 0.25% (w/w) cholesterol. Specifically, the diet contained 15% (all w/w) cocoabutter, 0.25% cholesterol, 1% corn oil, 40.5% sucrose, 20% acid casein, 10% corn starch and 5.95% cellulose, as major ingredients. This diet increased their plasma cholesterol level to about 15 mmol/L. Subsequently, the mice were randomized, on the basis of their plasma cholesterol level, into groups of six mice each. These groups were given the same diet, but containing in addition: • Group 1 no addition • Group 2 0.1% (w/w) phytosphingosine • Group 3 0.1% (w/w) sphingosine • Group 4 0.1% (w/w) sphinganine • Group 5 0.1% (w/w) cerebroside • Group 6 0.1% (w/w) ceramide IV • Group 7 0.1% (w/w) sphingomyelin
(§3) The phytosphingosine, ceramide IV and cerebroside (=glucosyl ceramide) were obtained from Cosmoferm BV (Delft, The Netherlands). Sphingomyelin from egg was obtained from Larodan Fine Chemicals AB (Stockholm, Sweden) and sphingosine and sphinganine were obtained from Avanti Polar Lipids Inc, (Alabaster, Ala., USA). During the experiment, body weight and food intake were monitored. At three weeks after the dietary change, blood was taken to determine plasma cholesterol and triglyceride levels. Also, the plasma lipoprotein pattern was determined group wise in pooled samples by fplc. Then, the concentration of the additives was changed to 0.2%, and feeding continued for another 3 weeks. At three weeks after this dietary change, blood was again taken to determine plasma cholesterol and triglyceride levels, and the plasma lipoprotein pattern was determined group wise in pooled samples by fplc. The dietary additives were then changed to 0.4% (w/w), and the same cycle of feeding and blood sampling was executed.
(§4) In a separate experiment, groups of six APOE*3Leiden mice were fed the above-described Western-type diet, containing 1.0% (w/w) of phytosphingosine. At the end of the treatment period, plasma cholesterol was reduced with 58% (p=0.007) and plasma triglyceride was reduced with 64% (p=0.01) with respect to the control group.

[2] = system: APOE*3Leiden transgenic mice; assay: Plasma triglycerides in APOE*3Leiden transgenic mice fed a Western-type diet with sphingolipid
Text: as §1, §2, §3, §4

[3] = system: APOE*3Leiden transgenic mice; assay: Plasma lipoprotein distribution pattern by fplc in pooled samples; details: separate experiment, 1.0% (w/w) in diet
Text: as §3, with “executed. […] In a separate experiment, groups of six APOE*3Leiden mice were fed the above-described Western-type diet, containing 1.0% (w/w) of phytosphingosine. At the end of the treatment period, plasma cholesterol was reduced with 58% (p=0.007) and plasma triglyceride was reduced with 64% (p=0.01) with respect to the control group.” for “executed.”

[4] = t = 0, baseline after 5 weeks Western-type diet, before addition of sphingolipid, female mice, group mean
[5] = t = 3 (weeks), 0.1% (w/w) in diet
[6] = t = 6 (weeks), 0.2% in diet for the last 3 weeks
[7] = t = 9 (weeks), 0.4% (w/w) in diet for the last 3 weeks

CCCCCCCCCCCCCC[C@@H](O)[C@@H](O)[C@@H](N)CO [PHYTOSPHINGOSINE, phytosphingosine]
plasma cholesterol reduced with respect to the control group ([1]; separate experiment, 1.0% (w/w) in Western-type diet, end of treatment period, p=0.007): 58% | Plasma cholesterol levels [1, 4]: 14.4 mmol/L | Plasma cholesterol levels [1, 5]: 13.2 mmol/L | Plasma cholesterol reduction relative to control ([1]; t = 3 (weeks), 0.1% in diet): 11.6% | Plasma cholesterol reduction relative to control ([1]; t = 6 (weeks), 0.2% in diet): 19.7% | Plasma cholesterol levels [1, 6]: 12.6 mmol/L | Plasma cholesterol levels [1, 7]: 10.9 mmol/L | Plasma cholesterol reduction relative to control ([1]; t = 9 (weeks), 0.4% in diet): 34.8% | plasma triglyceride reduced with respect to the control group ([2]; separate experiment, 1.0% (w/w) in Western-type diet, end of treatment period, p=0.01): 64% | Plasma triglyceride levels [2, 4]: 2.1 mmol/L | Plasma triglyceride levels [2, 5]: 1.7 mmol/L | Plasma triglyceride reduction relative to control ([2]; t = 3 (weeks), 0.1% in diet): 22.9% | Plasma triglyceride reduction relative to control ([2]; t = 6 (weeks), 0.2% in diet): 39.8% | Plasma triglyceride levels [2, 6]: 1.2 mmol/L | Plasma triglyceride levels [2, 7]: 1.5 mmol/L | Plasma triglyceride reduction relative to control ([2]; t = 9 (weeks), 0.4% in diet): 34.8% | lipoprotein fractions accounting for the decrease of cholesterol and triglycerides (fplc) [3]: fully due to a decrease in VLDL and IDL/LDL fractions

CCCCCCCCCCCCCCC[C@@H](O)[C@@H](N)CO [SPHINGANINE, sphinganine]
Plasma cholesterol levels [1, 4]: 15.9 mmol/L | Plasma cholesterol levels [1, 5]: 14.9 mmol/L | Plasma cholesterol reduction relative to control ([1]; t = 3 (weeks), 0.1% in diet): 0.3% | Plasma cholesterol reduction relative to control ([1]; t = 6 (weeks), 0.2% in diet): 36.2% | Plasma cholesterol levels [1, 6]: 10.0 mmol/L | Plasma cholesterol levels [1, 7]: 11.5 mmol/L | Plasma cholesterol reduction relative to control ([1]; t = 9 (weeks), 0.4% in diet): 31.2% | Plasma triglyceride levels [2, 4]: 2.3 mmol/L | Plasma triglyceride levels [2, 5]: 1.7 mmol/L | Plasma triglyceride reduction relative to control ([2]; t = 3 (weeks), 0.1% in diet): 19.2% | Plasma triglyceride reduction relative to control ([2]; t = 6 (weeks), 0.2% in diet): 52.9% | Plasma triglyceride levels [2, 6]: 1.0 mmol/L | Plasma triglyceride levels [2, 7]: 1.2 mmol/L | Plasma triglyceride reduction relative to control ([2]; t = 9 (weeks), 0.4% in diet): 44.9%

CCCCCCCCCCCCC/C=C/[C@@H](O)[C@@H](N)CO [SPHINGOSINE, sphingosine]
Plasma cholesterol levels [1, 4]: 14.6 mmol/L | Plasma cholesterol levels [1, 5]: 15.3 mmol/L | Plasma cholesterol reduction relative to control ([1]; t = 3 (weeks), 0.1% in diet): −2.1% | Plasma cholesterol reduction relative to control ([1]; t = 6 (weeks), 0.2% in diet): 29.7% | Plasma cholesterol levels [1, 6]: 11.0 mmol/L | Plasma cholesterol levels [1, 7]: 9.5 mmol/L | Plasma cholesterol reduction relative to control ([1]; t = 9 (weeks), 0.4% in diet): 43.3% | Plasma triglyceride levels [2, 4]: 2.3 mmol/L | Plasma triglyceride levels [2, 5]: 2.2 mmol/L | Plasma triglyceride reduction relative to control ([2]; t = 3 (weeks), 0.1% in diet): −0.6% | Plasma triglyceride reduction relative to control ([2]; t = 6 (weeks), 0.2% in diet): 32.5% | Plasma triglyceride levels [2, 6]: 1.4 mmol/L | Plasma triglyceride levels [2, 7]: 1.0 mmol/L | Plasma triglyceride reduction relative to control ([2]; t = 9 (weeks), 0.4% in diet): 54.3%

ceramide IV
Plasma cholesterol levels [1, 4]: 15.6 mmol/L | Plasma cholesterol levels [1, 5]: 14.8 mmol/L | Plasma cholesterol reduction relative to control ([1]; t = 3 (weeks), 0.1% in diet): 1.5% | Plasma cholesterol reduction relative to control ([1]; t = 6 (weeks), 0.2% in diet): 19.4% | Plasma cholesterol levels [1, 6]: 12.6 mmol/L | Plasma cholesterol levels [1, 7]: 11.7 mmol/L | Plasma cholesterol reduction relative to control ([1]; t = 9 (weeks), 0.4% in diet): 29.9% | Plasma triglyceride levels [2, 4]: 2.3 mmol/L | Plasma triglyceride levels [2, 5]: 2.0 mmol/L | Plasma triglyceride reduction relative to control ([2]; t = 3 (weeks), 0.1% in diet): 8.5% | Plasma triglyceride reduction relative to control ([2]; t = 6 (weeks), 0.2% in diet): 49.1% | Plasma triglyceride levels [2, 6]: 1.1 mmol/L | Plasma triglyceride levels [2, 7]: 1.4 mmol/L | Plasma triglyceride reduction relative to control ([2]; t = 9 (weeks), 0.4% in diet): 38.4%

glucosyl ceramide [CEREBROSIDE]
Plasma cholesterol levels [1, 4]: 14.8 mmol/L | Plasma cholesterol levels [1, 5]: 14.2 mmol/L | Plasma cholesterol reduction relative to control ([1]; t = 3 (weeks), 0.1% in diet): 5.2% | Plasma cholesterol reduction relative to control ([1]; t = 6 (weeks), 0.2% in diet): 25.6% | Plasma cholesterol levels [1, 6]: 11.7 mmol/L | Plasma cholesterol levels [1, 7]: 12.8 mmol/L | Plasma cholesterol reduction relative to control ([1]; t = 9 (weeks), 0.4% in diet): 23.4% | Plasma triglyceride levels [2, 4]: 2.2 mmol/L | Plasma triglyceride levels [2, 5]: 2.2 mmol/L | Plasma triglyceride reduction relative to control ([2]; t = 3 (weeks), 0.1% in diet): −1.2% | Plasma triglyceride reduction relative to control ([2]; t = 6 (weeks), 0.2% in diet): 42.0% | Plasma triglyceride levels [2, 6]: 1.2 mmol/L | Plasma triglyceride levels [2, 7]: 1.8 mmol/L | Plasma triglyceride reduction relative to control ([2]; t = 9 (weeks), 0.4% in diet): 21.9%

sphingomyelin
Plasma cholesterol levels [1, 4]: 15.1 mmol/L | Plasma cholesterol levels [1, 5]: 14.7 mmol/L | Plasma cholesterol reduction relative to control ([1]; t = 3 (weeks), 0.1% in diet): 1.9% | Plasma cholesterol reduction relative to control ([1]; t = 6 (weeks), 0.2% in diet): 36.8% | Plasma cholesterol levels [1, 6]: 9.9 mmol/L | Plasma cholesterol levels [1, 7]: 8.7 mmol/L | Plasma cholesterol reduction relative to control ([1]; t = 9 (weeks), 0.4% in diet): 48.2% | Plasma triglyceride levels [2, 4]: 2.5 mmol/L | Plasma triglyceride levels [2, 5]: 1.7 mmol/L | Plasma triglyceride reduction relative to control ([2]; t = 3 (weeks), 0.1% in diet): 19.9% | Plasma triglyceride reduction relative to control ([2]; t = 6 (weeks), 0.2% in diet): 42.7% | Plasma triglyceride levels [2, 6]: 1.2 mmol/L | Plasma triglyceride levels [2, 7]: 0.9 mmol/L | Plasma triglyceride reduction relative to control ([2]; t = 9 (weeks), 0.4% in diet): 59.5%
